{"source": "patent US20260356819A1", "about": "“OXOISOINDOLINYL-SUBSTITUTED […] DERIVATIVE AND USE THEREOF” (GLUETACS THERAPEUTICS (SHANGHAI) CO., LTD., priority 2023, published 2026)", "type_in_all_cases": "cell-based", "conditions_in_all_cases": "compounds at 50 nM and 500 nM", "key": {"IKZF2": {"biological_target": "T1, IKZF2 (Homo sapiens, UniProt Q96SW2+Q9UKS7)", "T1 construct": "The supernatant was aspirated as the extracted total cell protein; endogenous in cells; host or cells: human peripheral blood mononuclear cells (hPBMCs)", "experiment": "Western blot degradation of IKZF2 in hPBMCs (24 h)", "procedure,_shortened": "(§1)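 Read-out is Western blot band grayscale, divided by internal control band and normalised to give percent target protein remaining; degradation rate is 1 minus that value. Cells were human PBMCs exposed to compound at 50 nM and 500 nM for 24 hours.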"}, "IKZF1": {"biological_target": "T2, IKZF1 (Homo sapiens, UniProt Q13422+Q96SW2)", "T2 construct": "The supernatant was aspirated as the extracted total cell protein; endogenous in cells; host or cells: human peripheral blood mononuclear cells (hPBMCs)", "T2 sequence (Q13422 whole entry)": "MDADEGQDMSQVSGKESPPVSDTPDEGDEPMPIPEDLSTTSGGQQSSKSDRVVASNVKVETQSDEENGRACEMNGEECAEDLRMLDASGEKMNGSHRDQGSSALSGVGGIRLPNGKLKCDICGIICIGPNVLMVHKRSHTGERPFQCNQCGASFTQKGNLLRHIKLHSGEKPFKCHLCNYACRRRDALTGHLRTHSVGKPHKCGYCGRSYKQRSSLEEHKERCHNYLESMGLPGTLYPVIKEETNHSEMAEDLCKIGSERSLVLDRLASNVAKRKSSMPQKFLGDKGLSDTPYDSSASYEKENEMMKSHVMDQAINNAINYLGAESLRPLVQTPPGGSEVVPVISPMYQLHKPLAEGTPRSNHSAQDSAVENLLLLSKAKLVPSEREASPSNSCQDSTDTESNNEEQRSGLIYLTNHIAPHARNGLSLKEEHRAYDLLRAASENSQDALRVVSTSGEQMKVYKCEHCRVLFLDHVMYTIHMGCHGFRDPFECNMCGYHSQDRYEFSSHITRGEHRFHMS", "T2 sequence (Q96SW2 whole entry)": "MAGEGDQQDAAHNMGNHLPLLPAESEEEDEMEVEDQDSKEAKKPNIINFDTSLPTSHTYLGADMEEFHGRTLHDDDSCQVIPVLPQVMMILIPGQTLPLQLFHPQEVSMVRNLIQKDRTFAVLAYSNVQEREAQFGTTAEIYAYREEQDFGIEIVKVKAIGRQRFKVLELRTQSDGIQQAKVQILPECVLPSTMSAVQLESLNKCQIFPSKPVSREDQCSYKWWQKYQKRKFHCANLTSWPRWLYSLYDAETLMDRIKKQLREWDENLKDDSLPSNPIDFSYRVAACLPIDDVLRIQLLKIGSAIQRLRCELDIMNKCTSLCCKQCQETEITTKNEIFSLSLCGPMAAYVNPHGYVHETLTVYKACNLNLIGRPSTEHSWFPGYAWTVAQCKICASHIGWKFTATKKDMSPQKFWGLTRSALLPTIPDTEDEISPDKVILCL", "T2 sequence (Q16531 whole entry partner)": "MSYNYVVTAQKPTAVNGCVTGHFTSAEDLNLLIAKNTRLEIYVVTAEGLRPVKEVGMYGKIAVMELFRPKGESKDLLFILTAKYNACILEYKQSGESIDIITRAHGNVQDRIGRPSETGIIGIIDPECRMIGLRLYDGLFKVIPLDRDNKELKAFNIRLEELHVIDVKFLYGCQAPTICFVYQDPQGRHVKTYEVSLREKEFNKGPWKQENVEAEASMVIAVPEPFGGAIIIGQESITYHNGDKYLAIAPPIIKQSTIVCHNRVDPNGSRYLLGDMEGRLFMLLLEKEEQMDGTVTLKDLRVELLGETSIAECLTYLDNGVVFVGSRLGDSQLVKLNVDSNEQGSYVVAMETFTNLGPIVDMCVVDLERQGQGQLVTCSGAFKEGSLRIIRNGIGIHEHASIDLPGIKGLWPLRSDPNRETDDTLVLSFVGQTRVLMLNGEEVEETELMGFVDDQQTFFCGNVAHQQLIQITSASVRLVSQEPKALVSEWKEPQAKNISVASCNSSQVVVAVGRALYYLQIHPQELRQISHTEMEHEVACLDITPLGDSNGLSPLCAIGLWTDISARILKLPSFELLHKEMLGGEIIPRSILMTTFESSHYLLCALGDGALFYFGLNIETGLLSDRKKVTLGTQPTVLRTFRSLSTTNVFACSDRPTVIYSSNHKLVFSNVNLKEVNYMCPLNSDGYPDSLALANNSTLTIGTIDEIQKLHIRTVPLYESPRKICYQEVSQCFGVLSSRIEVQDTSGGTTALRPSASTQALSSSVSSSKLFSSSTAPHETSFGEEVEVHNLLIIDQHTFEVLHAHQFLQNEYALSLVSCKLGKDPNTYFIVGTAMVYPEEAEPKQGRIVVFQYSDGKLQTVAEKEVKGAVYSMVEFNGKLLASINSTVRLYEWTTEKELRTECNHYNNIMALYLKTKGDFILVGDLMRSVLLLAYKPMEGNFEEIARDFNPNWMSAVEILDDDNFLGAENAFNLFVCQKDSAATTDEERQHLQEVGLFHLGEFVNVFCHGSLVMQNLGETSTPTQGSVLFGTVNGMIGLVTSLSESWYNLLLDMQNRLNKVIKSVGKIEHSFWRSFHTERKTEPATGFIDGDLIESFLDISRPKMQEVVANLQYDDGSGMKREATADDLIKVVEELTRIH", "experiment": "Western blot degradation of IKZF1 in hPBMCs (24 h)", "procedure,_shortened": "as §1"}, "IKZF3": {"biological_target": "T3, IKZF3 (Homo sapiens, UniProt Q96SW2+Q9UKT9)", "T3 construct": "The supernatant was aspirated as the extracted total cell protein; endogenous in cells; host or cells: human peripheral blood mononuclear cells (hPBMCs)", "T3 sequence (Q9UKT9 whole entry)": "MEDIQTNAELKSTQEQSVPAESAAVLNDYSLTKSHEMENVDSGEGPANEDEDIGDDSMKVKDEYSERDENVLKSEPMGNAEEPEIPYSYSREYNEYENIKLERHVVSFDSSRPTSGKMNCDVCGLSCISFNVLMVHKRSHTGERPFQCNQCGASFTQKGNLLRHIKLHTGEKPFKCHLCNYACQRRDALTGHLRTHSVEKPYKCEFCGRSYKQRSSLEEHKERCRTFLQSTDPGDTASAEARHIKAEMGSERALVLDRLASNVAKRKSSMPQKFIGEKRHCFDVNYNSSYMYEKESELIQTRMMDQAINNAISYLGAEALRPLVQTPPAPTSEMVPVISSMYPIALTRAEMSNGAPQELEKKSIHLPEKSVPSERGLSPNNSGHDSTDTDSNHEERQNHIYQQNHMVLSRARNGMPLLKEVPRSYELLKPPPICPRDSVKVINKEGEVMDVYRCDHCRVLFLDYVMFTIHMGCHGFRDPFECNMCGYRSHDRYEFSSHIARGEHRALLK", "T3 sequence (Q96SW2 whole entry)": "as the sequence (Q96SW2 whole entry) above", "T3 sequence (Q16531 whole entry partner)": "as the sequence (Q16531 whole entry partner) above", "experiment": "Western blot degradation of IKZF3 in hPBMCs (24 h)", "procedure,_shortened": "as §1"}, "GSPT1": {"biological_target": "T4, GSPT1 (Homo sapiens, UniProt P15170+Q96SW2)", "T4 construct": "The supernatant was aspirated as the extracted total cell protein; endogenous in cells; host or cells: human peripheral blood mononuclear cells (hPBMCs)", "T4 sequence (P15170 whole entry)": "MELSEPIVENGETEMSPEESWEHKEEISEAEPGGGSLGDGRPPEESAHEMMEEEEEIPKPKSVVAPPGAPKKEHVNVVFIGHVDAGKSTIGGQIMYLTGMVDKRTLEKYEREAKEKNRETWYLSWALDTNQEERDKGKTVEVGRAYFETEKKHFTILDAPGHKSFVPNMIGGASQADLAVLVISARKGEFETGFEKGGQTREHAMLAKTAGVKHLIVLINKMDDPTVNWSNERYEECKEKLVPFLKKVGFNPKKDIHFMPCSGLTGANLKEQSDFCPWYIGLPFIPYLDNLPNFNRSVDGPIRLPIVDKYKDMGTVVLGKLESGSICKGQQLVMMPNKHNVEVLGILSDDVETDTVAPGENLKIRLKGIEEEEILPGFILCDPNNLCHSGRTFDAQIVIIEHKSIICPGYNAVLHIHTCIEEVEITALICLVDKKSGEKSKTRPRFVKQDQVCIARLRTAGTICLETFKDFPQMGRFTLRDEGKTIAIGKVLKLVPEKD", "T4 sequence (Q96SW2 whole entry)": "as the sequence (Q96SW2 whole entry) above", "T4 sequence (Q16531 whole entry partner)": "as the sequence (Q16531 whole entry partner) above", "experiment": "Western blot degradation of GSPT1 in hPBMCs (24 h)", "procedure,_shortened": "as §1"}, "CK1α": {"biological_target": "T5, CK1α (Homo sapiens, UniProt P48729+Q96SW2)", "T5 construct": "The supernatant was aspirated as the extracted total cell protein; endogenous in cells; host or cells: human peripheral blood mononuclear cells (hPBMCs)", "T5 sequence (P48729 whole entry)": "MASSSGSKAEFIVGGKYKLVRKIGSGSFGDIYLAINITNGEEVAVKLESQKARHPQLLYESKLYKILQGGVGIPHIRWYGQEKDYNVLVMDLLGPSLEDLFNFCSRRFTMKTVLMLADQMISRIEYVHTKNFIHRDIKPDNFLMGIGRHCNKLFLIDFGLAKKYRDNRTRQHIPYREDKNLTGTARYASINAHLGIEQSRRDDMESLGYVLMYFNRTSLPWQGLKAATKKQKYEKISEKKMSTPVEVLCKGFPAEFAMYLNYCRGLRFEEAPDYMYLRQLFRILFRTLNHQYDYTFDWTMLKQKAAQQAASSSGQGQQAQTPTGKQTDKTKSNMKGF", "T5 sequence (Q96SW2 whole entry)": "as the sequence (Q96SW2 whole entry) above", "T5 sequence (Q16531 whole entry partner)": "as the sequence (Q16531 whole entry partner) above", "experiment": "Western blot degradation of CK1α in hPBMCs (24 h)", "procedure,_shortened": "as §1"}, "WEE1": {"biological_target": "T6, WEE1 (Homo sapiens, UniProt P30291+Q96SW2)", "T6 construct": "The supernatant was aspirated as the extracted total cell protein; endogenous in cells; host or cells: human peripheral blood mononuclear cells (hPBMCs)", "T6 sequence (P30291 whole entry)": "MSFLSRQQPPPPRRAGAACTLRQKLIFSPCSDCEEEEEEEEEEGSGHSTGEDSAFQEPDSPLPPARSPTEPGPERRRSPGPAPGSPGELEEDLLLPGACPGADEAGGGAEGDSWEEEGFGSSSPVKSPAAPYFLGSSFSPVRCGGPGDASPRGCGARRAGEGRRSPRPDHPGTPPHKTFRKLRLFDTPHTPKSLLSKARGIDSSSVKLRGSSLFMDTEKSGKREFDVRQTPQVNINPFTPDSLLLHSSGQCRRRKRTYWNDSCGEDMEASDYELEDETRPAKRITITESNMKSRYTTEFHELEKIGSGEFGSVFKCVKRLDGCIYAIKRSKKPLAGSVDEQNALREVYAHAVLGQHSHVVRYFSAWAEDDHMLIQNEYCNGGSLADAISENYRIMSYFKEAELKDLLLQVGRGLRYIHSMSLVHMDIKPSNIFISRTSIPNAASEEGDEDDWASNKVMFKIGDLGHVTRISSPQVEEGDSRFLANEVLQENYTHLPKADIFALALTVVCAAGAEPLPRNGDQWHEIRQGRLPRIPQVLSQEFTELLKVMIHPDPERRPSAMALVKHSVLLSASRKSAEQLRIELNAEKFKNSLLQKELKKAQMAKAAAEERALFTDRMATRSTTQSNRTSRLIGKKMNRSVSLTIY", "T6 sequence (Q96SW2 whole entry)": "as the sequence (Q96SW2 whole entry) above", "T6 sequence (Q16531 whole entry partner)": "as the sequence (Q16531 whole entry partner) above", "experiment": "Western blot degradation of WEE1 in hPBMCs (24 h)", "procedure,_shortened": "as §1"}}}
{"smiles": "O=C1CCN(N2C(=O)c3ccc(CN4C5CCC4CN(c4cccc(Cl)c4Cl)C5)cc3C2=O)C(=O)N1", "note": "[GT-07438, 5-((3-(2,3-dichlorophenyl)-3,8-diazabicyclo[3.2.1]octan-8-yl)methyl)-2-(2,4-dioxotetrahydropyrimidin-1(2H)-yl)isoindoline-1,3-dione]", "values": [{"measurement": "IKZF2 substrate protein remaining %", "setting": "IKZF2", "result": "B (80%< substrate protein remaining % ≤100%)"}, {"measurement": "IKZF1 substrate protein remaining %", "setting": "IKZF1", "result": "B (80%< substrate protein remaining % ≤100%)"}, {"measurement": "IKZF3 substrate protein remaining %", "setting": "IKZF3", "result": "B (80%< substrate protein remaining % ≤100%)"}, {"measurement": "GSPT1 substrate protein remaining %", "setting": "GSPT1", "result": "A (0% ≤ substrate protein remaining % ≤80%)"}, {"measurement": "CK1α substrate protein remaining %", "setting": "CK1α", "result": "A (0% ≤ substrate protein remaining % ≤80%)"}, {"measurement": "WEE1 substrate protein remaining %", "setting": "WEE1", "result": "A (0% ≤ substrate protein remaining % ≤80%)"}]}
{"smiles": "O=C1CCN(N2C(=O)c3ccc(CN4CCCN(c5cccc(Cl)c5Cl)CC4)cc3C2=O)C(=O)N1", "note": "[GT-07439, 5-((4-(2,3-dichlorophenyl)-1,4-diazepan-1-yl)methyl)-2-(2,4-dioxotetrahydropyrimidin-1(2H)-yl)isoindoline-1,3-dione]", "values": [{"measurement": "IKZF2 substrate protein remaining %", "setting": "IKZF2", "result": "B (80%< substrate protein remaining % ≤100%)"}, {"measurement": "IKZF1 substrate protein remaining %", "setting": "IKZF1", "result": "B (80%< substrate protein remaining % ≤100%)"}, {"measurement": "IKZF3 substrate protein remaining %", "setting": "IKZF3", "result": "B (80%< substrate protein remaining % ≤100%)"}, {"measurement": "GSPT1 substrate protein remaining %", "setting": "GSPT1", "result": "A (0% ≤ substrate protein remaining % ≤80%)"}, {"measurement": "CK1α substrate protein remaining %", "setting": "CK1α", "result": "A (0% ≤ substrate protein remaining % ≤80%)"}, {"measurement": "WEE1 substrate protein remaining %", "setting": "WEE1", "result": "B (80%< substrate protein remaining % ≤100%)"}]}
{"smiles": "O=C1CCN(N2C(=O)c3ccc(CN4CC=C(c5ccnc(Cl)c5Cl)CC4)cc3C2=O)C(=O)N1", "note": "[GT-07440, 5-((2′,3′-dichloro-3,6-dihydro-[4,4′-bipyridin]-1(2H)-yl)methyl)-2-(2,4-dioxotetrahydropyrimidin-1(2H)-yl)isoindoline-1,3-dione]", "values": [{"measurement": "IKZF2 substrate protein remaining %", "setting": "IKZF2", "result": "B (80%< substrate protein remaining % ≤100%)"}, {"measurement": "IKZF1 substrate protein remaining %", "setting": "IKZF1", "result": "B (80%< substrate protein remaining % ≤100%)"}, {"measurement": "IKZF3 substrate protein remaining %", "setting": "IKZF3", "result": "B (80%< substrate protein remaining % ≤100%)"}, {"measurement": "GSPT1 substrate protein remaining %", "setting": "GSPT1", "result": "A (0% ≤ substrate protein remaining % ≤80%)"}, {"measurement": "CK1α substrate protein remaining %", "setting": "CK1α", "result": "A (0% ≤ substrate protein remaining % ≤80%)"}, {"measurement": "WEE1 substrate protein remaining %", "setting": "WEE1", "result": "A (0% ≤ substrate protein remaining % ≤80%)"}]}
{"smiles": "O=C1CCN(N2C(=O)c3ccc(CN4CC=C(c5ccoc5)CC4)cc3C2=O)C(=O)N1", "note": "[GT-07442, 2-(2,4-dioxotetrahydropyrimidin-1(2H)-yl)-5-((4-(furan-3-yl)-3,6-dihydropyridin-1(2H)-yl)methyl)isoindoline-1,3-dione]", "values": [{"measurement": "IKZF2 substrate protein remaining %", "setting": "IKZF2", "result": "B (80%< substrate protein remaining % ≤100%)"}, {"measurement": "IKZF1 substrate protein remaining %", "setting": "IKZF1", "result": "B (80%< substrate protein remaining % ≤100%)"}, {"measurement": "IKZF3 substrate protein remaining %", "setting": "IKZF3", "result": "A (0% ≤ substrate protein remaining % ≤80%)"}, {"measurement": "GSPT1 substrate protein remaining %", "setting": "GSPT1", "result": "A (0% ≤ substrate protein remaining % ≤80%)"}, {"measurement": "CK1α substrate protein remaining %", "setting": "CK1α", "result": "B (80%< substrate protein remaining % ≤100%)"}, {"measurement": "WEE1 substrate protein remaining %", "setting": "WEE1", "result": "A (0% ≤ substrate protein remaining % ≤80%)"}]}
{"smiles": "O=C1CCN(N2C(=O)c3ccc(CN4CC=C(c5cncc(Cl)c5)CC4)cc3C2=O)C(=O)N1", "note": "[GT-07491, 5-((5-chloro-3′,6′-dihydro-[3,4′-bipyridin]-1′ (2′H)-yl)methyl)-2-(2,4-dioxotetrahydropyrimidin-1(2H)-yl)isoindoline-1,3-dione]", "values": [{"measurement": "IKZF2 substrate protein remaining %", "setting": "IKZF2", "result": "B (80%< substrate protein remaining % ≤100%)"}, {"measurement": "IKZF1 substrate protein remaining %", "setting": "IKZF1", "result": "B (80%< substrate protein remaining % ≤100%)"}, {"measurement": "IKZF3 substrate protein remaining %", "setting": "IKZF3", "result": "B (80%< substrate protein remaining % ≤100%)"}, {"measurement": "GSPT1 substrate protein remaining %", "setting": "GSPT1", "result": "A (0% ≤ substrate protein remaining % ≤80%)"}, {"measurement": "CK1α substrate protein remaining %", "setting": "CK1α", "result": "B (80%< substrate protein remaining % ≤100%)"}, {"measurement": "WEE1 substrate protein remaining %", "setting": "WEE1", "result": "A (0% ≤ substrate protein remaining % ≤80%)"}]}
{"smiles": "O=C1CCN(N2C(=O)c3ccc(CN4CC=C(c5ncccc5F)CC4)cc3C2=O)C(=O)N1", "note": "[GT-07492, 2-(2,4-dioxotetrahydropyrimidin-1(2H)-yl)-5-((3-fluoro-3′,6′-dihydro-[2,4′-bipyridin]-1′ (2′H)-yl)methyl)isoindoline-1,3-dione]", "values": [{"measurement": "IKZF2 substrate protein remaining %", "setting": "IKZF2", "result": "B (80%< substrate protein remaining % ≤100%)"}, {"measurement": "IKZF1 substrate protein remaining %", "setting": "IKZF1", "result": "B (80%< substrate protein remaining % ≤100%)"}, {"measurement": "IKZF3 substrate protein remaining %", "setting": "IKZF3", "result": "B (80%< substrate protein remaining % ≤100%)"}, {"measurement": "GSPT1 substrate protein remaining %", "setting": "GSPT1", "result": "B (80%< substrate protein remaining % ≤100%)"}, {"measurement": "CK1α substrate protein remaining %", "setting": "CK1α", "result": "A (0% ≤ substrate protein remaining % ≤80%)"}, {"measurement": "WEE1 substrate protein remaining %", "setting": "WEE1", "result": "B (80%< substrate protein remaining % ≤100%)"}]}
{"smiles": "O=C1CCN(N2C(=O)c3ccc(CN4CCC(c5ccnc(F)c5F)CC4)cc3C2=O)C(=O)N1", "note": "[GT-07493, 5-((4-(2,3-difluoropyridin-4-yl)piperidin-1-yl)methyl)-2-(2,4-dioxotetrahydropyrimidin-1(2H)-yl)isoindoline-1,3-dione]", "values": [{"measurement": "IKZF2 substrate protein remaining %", "setting": "IKZF2", "result": "B (80%< substrate protein remaining % ≤100%)"}, {"measurement": "IKZF1 substrate protein remaining %", "setting": "IKZF1", "result": "B (80%< substrate protein remaining % ≤100%)"}, {"measurement": "IKZF3 substrate protein remaining %", "setting": "IKZF3", "result": "A (0% ≤ substrate protein remaining % ≤80%)"}, {"measurement": "GSPT1 substrate protein remaining %", "setting": "GSPT1", "result": "B (80%< substrate protein remaining % ≤100%)"}, {"measurement": "CK1α substrate protein remaining %", "setting": "CK1α", "result": "A (0% ≤ substrate protein remaining % ≤80%)"}, {"measurement": "WEE1 substrate protein remaining %", "setting": "WEE1", "result": "B (80%< substrate protein remaining % ≤100%)"}]}
{"smiles": "O=C1CCN(N2C(=O)c3ccc(CN4CC=C(c5ccnc(F)c5F)CC4)cc3C2=O)C(=O)N1", "note": "[GT-07494, 5-((2′,3′-difluoro-3,6-dihydro-[4,4′-bipyridin]-1(2H)-yl)methyl)-2-(2,4-dioxotetrahydropyrimidin-1(2H)-yl)isoindoline-1,3-dione]", "values": [{"measurement": "IKZF2 substrate protein remaining %", "setting": "IKZF2", "result": "B (80%< substrate protein remaining % ≤100%)"}, {"measurement": "IKZF1 substrate protein remaining %", "setting": "IKZF1", "result": "B (80%< substrate protein remaining % ≤100%)"}, {"measurement": "IKZF3 substrate protein remaining %", "setting": "IKZF3", "result": "B (80%< substrate protein remaining % ≤100%)"}, {"measurement": "GSPT1 substrate protein remaining %", "setting": "GSPT1", "result": "B (80%< substrate protein remaining % ≤100%)"}, {"measurement": "CK1α substrate protein remaining %", "setting": "CK1α", "result": "A (0% ≤ substrate protein remaining % ≤80%)"}, {"measurement": "WEE1 substrate protein remaining %", "setting": "WEE1", "result": "A (0% ≤ substrate protein remaining % ≤80%)"}]}
{"smiles": "O=C1CCN(N2Cc3cc(CN4CCC(c5ccon5)CC4)ccc3C2=O)C(=O)N1", "note": "[GT-07495, 1-(5-((4-(isoxazol-3-yl)piperidin-1-yl)methyl)-1-oxoisoindolin-2-yl)dihydropyrimidine-2,4(1H,3H)-dione]", "values": [{"measurement": "IKZF2 substrate protein remaining %", "setting": "IKZF2", "result": "B (80%< substrate protein remaining % ≤100%)"}, {"measurement": "IKZF1 substrate protein remaining %", "setting": "IKZF1", "result": "B (80%< substrate protein remaining % ≤100%)"}, {"measurement": "IKZF3 substrate protein remaining %", "setting": "IKZF3", "result": "B (80%< substrate protein remaining % ≤100%)"}, {"measurement": "GSPT1 substrate protein remaining %", "setting": "GSPT1", "result": "A (0% ≤ substrate protein remaining % ≤80%)"}, {"measurement": "CK1α substrate protein remaining %", "setting": "CK1α", "result": "A (0% ≤ substrate protein remaining % ≤80%)"}, {"measurement": "WEE1 substrate protein remaining %", "setting": "WEE1", "result": "B (80%< substrate protein remaining % ≤100%)"}]}
{"smiles": "O=C1CCN(N2Cc3cc(CN4CCN(c5noc6cc(F)ccc56)CC4)ccc3C2=O)C(=O)N1", "note": "[GT-07496, 1-(5-((4-(6-fluorobenzo[d]isoxazol-3-yl)piperazin-1-yl)methyl)-1-oxoisoindolin-2-yl)dihydropyrimidine-2,4(1H,3H)-dione]", "values": [{"measurement": "IKZF2 substrate protein remaining %", "setting": "IKZF2", "result": "B (80%< substrate protein remaining % ≤100%)"}, {"measurement": "IKZF1 substrate protein remaining %", "setting": "IKZF1", "result": "B (80%< substrate protein remaining % ≤100%)"}, {"measurement": "IKZF3 substrate protein remaining %", "setting": "IKZF3", "result": "B (80%< substrate protein remaining % ≤100%)"}, {"measurement": "GSPT1 substrate protein remaining %", "setting": "GSPT1", "result": "A (0% ≤ substrate protein remaining % ≤80%)"}, {"measurement": "CK1α substrate protein remaining %", "setting": "CK1α", "result": "A (0% ≤ substrate protein remaining % ≤80%)"}, {"measurement": "WEE1 substrate protein remaining %", "setting": "WEE1", "result": "B (80%< substrate protein remaining % ≤100%)"}]}
